Assay results from ChEMBL document CHEMBL3108719, “Synthesis and in Vitro Evaluation of a Peptidomimetic Inhibitor Targeting the Src Homology 2 (SH2) Domain of STAT6” (ACS Med Chem Lett, 2014).
Activity calls are given as the source filed them. The calls are words filed in the database; no cut-off is given here.

Experiments:
Format in all cases: cell-based
[1] = Cytotoxicity against human BEAS2B cells up to 10 uM after 72 hrs by MTS assay; settings: beas-2b
[2] = target: T1, Signal transducer and activator of transcription 6 (Homo sapiens) (UniProt P42226); test: Inhibition of IL13-stimulated SH2 domain of STAT6 phosphorylation at Tyr641 in human BEAS2B cells at 1 to 10 uM incubated for 2 hrs prior to IL-13 challenge measured after 1 hr by Western blotting analysis
T1 sequence (whole entry): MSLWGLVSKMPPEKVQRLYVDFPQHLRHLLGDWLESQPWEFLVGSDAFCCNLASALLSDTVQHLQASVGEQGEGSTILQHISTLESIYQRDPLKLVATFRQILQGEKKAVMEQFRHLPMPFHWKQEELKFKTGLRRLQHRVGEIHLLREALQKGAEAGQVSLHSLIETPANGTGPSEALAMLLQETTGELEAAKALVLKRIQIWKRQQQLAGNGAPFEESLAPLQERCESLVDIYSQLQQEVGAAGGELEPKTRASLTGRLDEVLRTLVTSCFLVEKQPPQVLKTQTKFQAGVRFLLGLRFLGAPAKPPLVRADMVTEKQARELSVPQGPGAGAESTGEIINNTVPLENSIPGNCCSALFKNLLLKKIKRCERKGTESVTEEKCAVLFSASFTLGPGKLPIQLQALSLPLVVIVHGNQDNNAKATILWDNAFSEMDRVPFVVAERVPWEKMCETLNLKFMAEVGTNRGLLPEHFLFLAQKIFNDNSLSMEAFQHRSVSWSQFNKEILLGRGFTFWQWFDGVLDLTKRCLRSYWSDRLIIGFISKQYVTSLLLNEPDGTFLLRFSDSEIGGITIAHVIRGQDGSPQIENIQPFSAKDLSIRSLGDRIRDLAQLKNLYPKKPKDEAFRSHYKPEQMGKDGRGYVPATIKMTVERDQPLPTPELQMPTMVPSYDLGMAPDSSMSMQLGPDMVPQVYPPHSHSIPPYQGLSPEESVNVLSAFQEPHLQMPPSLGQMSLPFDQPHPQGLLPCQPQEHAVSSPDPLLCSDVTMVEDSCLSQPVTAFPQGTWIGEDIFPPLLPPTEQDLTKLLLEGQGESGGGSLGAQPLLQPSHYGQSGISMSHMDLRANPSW

[3] = target: T1, Signal transducer and activator of transcription 6 (Homo sapiens); test: Inhibition of IL4-stimulated SH2 domain of STAT6 phosphorylation at Tyr641 in human BEAS2B cells at 1 to 10 uM incubated for 2 to 48 hrs prior to IL-4 challenge measured after 1 hr by Western blotting analysis
[4] = target: T1, Signal transducer and activator of transcription 6 (Homo sapiens); test: Inhibition of IL4-stimulated SH2 domain of STAT6 phosphorylation at Tyr641 in human BEAS2B cells at 1 to 10 uM incubated for 2 hrs prior to IL-4 challenge measured after 1 hr by Western blotting analysis

Question: Which Activity [1] does the source give for `CC(C)(C)C(=O)OCOP(=O)(OCOC(=O)C(C)(C)C)C(F)(F)c1ccc(/C=C/C(=O)N[C@H](C(=O)N2CCC[C@H]2C(=O)N(c2ccccc2)c2ccc(I)cc2)C(C)(C)C)cc1` here?
Answer: The Activity was “Non-toxic”.

Question: What about the inhibition [2] of the same compound?
Answer: Its inhibition is “Active”.

Question: What about the inhibition [3] of the same compound?
Answer: The inhibition was “Active”.

Question: What about the inhibition [4] of the same compound?
Answer: The inhibition was “Active”.
